Measurements from patent US20170273949A1, “AGENT FOR PREVENTING AND/OR TREATING OPHTHALMOLOGIC DISEASES” (MITSUBISHI TANABE PHARMA CORPORATION, priority 2014, published 2017).

Legend:
[1] = tested on: human retinal microvascular endothelial cells (HRMECs); test: VEGF-induced cell growth of HRMECs (cell counting kit-8); format: cell-based; conditions: edaravone 1, 10 or 100 μM added 1 hour before VEGF 10 ng/mL, 24 hours, control without VEGF = 100%, FIG. 2
Experimental: Using CSC Complete Recombinant Medium, human retinal microvascular endothelial cells (HRMECs) were plated at a cell density of 2×10^3 cells/well on a 96-well plate. Twenty-four hours after plating, the medium was exchanged with a CSC medium containing 10% fetal bovine serum (FBS). Then, twenty-four hours after the medium exchange, edaravone was added in a final concentration of 1, 10 or 100 μM to an edaravone addition group. One hour after the addition of edaravone, to a vascular endothelial growth factor (VEGF) addition group, VEGF was added in a final concentration of 10 ng/mL. Twenty-four hours after the addition of VEGF, in order to remove the reagent and VEGF, the medium was exchanged again with a CSC medium containing 10% FBS. After completion of the medium exchange, cell counting kit-8 was added, and the absorbance at 450 nm was then measured (defined as “measurement value 1”). Three hours after the measurement of the absorbance, the second absorbance measurement was carried out (defined as “measurement value 2”). The measurement value 1 was subtracted from the measurement value 2, and the obtained value was then corrected, using a control group, to which VEGF had not been added, as 100%. The thus obtained value was defined as a growth rate. The cells were cultured under conditions of 37° C. and 5% CO2, except for the operations.

[2] = tested on: mouse models induced to have choroidal neovascularization (CNV) by laser irradiation (CNV models); test: laser-induced choroidal neovascularization (CNV) mouse model, area of CNV; format: in vivo; conditions: mice; 3 mg/kg or 10 mg/kg edaravone into the caudal vein immediately after laser irradiation; choroidal flat mount 14 days after irradiation; FIG. 1A, 1B
Experimental: In such CNV models, macrophages migrate as a result of provocation of inflammation by laser irradiation. Consequently, VEGF is generated, and new blood vessels are formed.
A 10-fold dilution of a mixed anesthetic solution of ketamine and xylazine (7:1) was administered at a dose of 10 mL/kg into the femoral muscle of each mouse, and one eye was then irradiated with laser at 6 sites with equal intervals on the circumference of discus nervi optici (wave length: 647 nm, spot size: 50 μm, irradiation time: 100 msec, and laser output: 120 mW). Immediately after the laser irradiation, 3 mg/kg edaravone, 10 mg/kg edaravone, or 10 mL/kg normal saline was administered into the caudal vein of each mouse. Thereafter, fundus photography was carried out using a fundus camera. Fourteen days after the laser irradiation, a 10-fold dilution of Fluorescite (registered trademark) Injection Solution No. 1 was administered at a dose of 0.5 mL/kg into the caudal vein under the same anesthesia as described above, and fluorescein fundus photography was then carried out using a fundus camera. […] The expression of CNV was evaluated by choroidal flat mount. Using a confocal laser scanning microscope, the CNV was photographed, and the area of CNV was then measured. […]

SMILES: CC1=NN(c2ccccc2)C(=O)C1 [edaravone, 3-methyl-1-phenyl-2-pyrazolin-5-one]
- cell growth induced by VEGF (growth rate) [1]: suppressed
- CNV formation (area of CNV) [2]: inhibited
